Results: article PMC10324454, “Novel pyrimidine Schiff bases and their selenium-containing nanoparticles as dual inhibitors of CDK1 and tubulin polymerase: design, synthesis, anti-proliferative evaluation, and molecular modelling” (Journal of Enzyme Inhibition and Medicinal Chemistry, 2023)

Tests used:
in vitro = experiment: in vitro; set-up: MTT cytotoxicity assay, formazan absorbance, viability IC50; settings: african green monkey, vero cells; read-out: IC50 Vero
Experimental: The cytotoxic activity of all synthesised compounds, both normal and nano-sized forms, was evaluated against three cancer cell lines, breast cancer (MCF-7), hepatocellular carcinoma (HepG-2), and non-small cell lung cancer (A549), while the normal Vero cell line was performed for the promising compounds 4, 6 and their nano-sized 4NPs, 6NPs, using the MTT assay according to the literature. The cell lines were obtained from ATCC (American Type Culture Collection). 5-Fluorouracil was used as a control. It is worth noting that freshly prepared nanoparticle-based compounds were used in each of the conducted experiments. The protocol of the MTT assay was illustrated in detail in the Supplementary File. S3 1.1. Biological activity 1.1.1. In vitro cytotoxicity assay The cytotoxic activity of all synthesized compounds, both normal and nano-sized forms, was evaluated against three cancer cell lines, breast cancer (MCF-7), hepatocellular carcinoma (HepG-2), and non-small cell lung cancer (A549), while the normal Vero cell line was performed for the promising compounds 4, 6 and their nano-sized 4NPs, 6NPs, using the MTT assay according to the literature. […] The cytotoxic activities of the examined compounds were quantified by inoculating a 96-well tissue culture plate with 1 X 10 5 cells / mL (100 uL/well) and incubating it at 37°C for 24 hours to develop a complete monolayer sheet. […]

HepG-2 = experiment: cells; set-up: MTT cytotoxicity assay, formazan absorbance, viability IC50; settings: Homo sapiens, HepG2
Experimental: (§1) The cytotoxic activity of all synthesised compounds, both normal and nano-sized forms, was evaluated against three cancer cell lines, breast cancer (MCF-7), hepatocellular carcinoma (HepG-2), and non-small cell lung cancer (A549), while the normal Vero cell line was performed for the promising compounds 4, 6 and their nano-sized 4NPs, 6NPs, using the MTT assay according to the literature. The cell lines were obtained from ATCC (American Type Culture Collection). 5-Fluorouracil was used as a control. It is worth noting that freshly prepared nanoparticle-based compounds were used in each of the conducted experiments. The protocol of the MTT assay was illustrated in detail in the Supplementary File. S3 1.1. Biological activity 1.1.1. In vitro cytotoxicity assay The cytotoxic activity of all synthesized compounds, both normal and nano-sized forms, was evaluated against three cancer cell lines, breast cancer (MCF-7), hepatocellular carcinoma (HepG-2), and non-small cell lung cancer (A549), while the normal Vero cell line was performed for the promising compounds 4, 6 and their nano-sized 4NPs, 6NPs, using the MTT assay according to the literature. The cell lines were obtained from ATCC (American Type Culture Collection). 5-Fluorouracil was used as a reference drug. The cytotoxic activities of the examined compounds were quantified by inoculating a 96-well tissue culture plate with 1 X 10 5 cells / mL (100 uL/well) and incubating it at 37°C for 24 hours to develop a complete monolayer sheet. After forming a confluent sheet of cells, the growth medium was decanted from 96-well microtiter plates, and the cell monolayer was washed twice with wash media. Two-fold dilutions of tested samples were made in RPMI medium with 2% serum (maintenance medium), and 0.1 mL of each dilution was tested in different wells, with three wells serving as controls and receiving only maintenance medium. Following that, the plate was incubated at 37°C and examined. Cells were investigated for any physical signs of toxicity, such as partial or complete monolayer loss, rounding, shrinkage, or cell granulation. MTT solution was prepared (5mg/ml in PBS) (BIO BASIC CANADA INC), and 20 uL MTT solution was added to each well. After 5 minutes on a shaking table at 150 rpm to thoroughly mix the MTT into the media, it was incubated (37 ° C, 5% CO2) for 4 hours to allow the MTT to be metabolized. Formazan (MTT metabolic product) was resuspended in 200 uL DMSO and shaken at 150 rpm for 5 minutes to t

A549 = experiment: cells; set-up: MTT cytotoxicity assay, formazan absorbance, viability IC50; settings: Homo sapiens
Experimental: as §1

MCF-7 = experiment: cells; set-up: MTT cytotoxicity assay, formazan absorbance, viability IC50; settings: Homo sapiens, MCF7
Experimental: as §1

CDK1 = target: T1, CDK1 (Homo sapiens, UniProt P06493); experiment: in vitro CDK1/cyclin B1 kinase inhibition assay (kit); format: biochemical; settings: read-out: CDK1 (IC50 μM ± SD)
T1 construct: with cyclin B1
T1 sequence (P06493 whole entry): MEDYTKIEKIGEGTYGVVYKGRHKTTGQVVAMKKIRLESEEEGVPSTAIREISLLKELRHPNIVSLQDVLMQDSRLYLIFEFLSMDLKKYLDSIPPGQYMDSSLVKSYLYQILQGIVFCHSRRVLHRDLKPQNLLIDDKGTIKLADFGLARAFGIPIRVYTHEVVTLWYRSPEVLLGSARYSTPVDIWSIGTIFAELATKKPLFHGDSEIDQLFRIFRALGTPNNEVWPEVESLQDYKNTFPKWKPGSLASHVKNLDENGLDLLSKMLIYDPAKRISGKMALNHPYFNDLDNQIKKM
T1 sequence (P14635 whole entry partner): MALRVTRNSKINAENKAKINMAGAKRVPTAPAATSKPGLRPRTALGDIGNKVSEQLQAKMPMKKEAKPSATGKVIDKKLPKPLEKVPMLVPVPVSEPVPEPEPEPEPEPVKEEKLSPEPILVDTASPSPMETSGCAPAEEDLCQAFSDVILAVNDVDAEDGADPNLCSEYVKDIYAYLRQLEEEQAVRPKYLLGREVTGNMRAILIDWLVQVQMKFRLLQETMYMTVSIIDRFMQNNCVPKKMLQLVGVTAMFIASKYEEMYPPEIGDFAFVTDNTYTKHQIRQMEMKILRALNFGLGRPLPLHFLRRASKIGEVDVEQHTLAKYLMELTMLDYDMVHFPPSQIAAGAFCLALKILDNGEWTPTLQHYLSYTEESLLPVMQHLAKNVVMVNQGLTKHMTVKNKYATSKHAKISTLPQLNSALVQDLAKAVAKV

[1] = target: T2, tubulin (tubulin polymerase, colchicine binding site); experiment: colchicine-tubulin competition-binding assay; settings: read-out: Tubulin polymerase (CBS) (IC50 μM ± SD)
T2 construct: with alpha/beta-tubulin heterodimer

For `O=c1[nH]cc(F)c(=O)[nH]1` [5-FU, 5-fluorouracil], the CC50 (in vitro) was 3040 nM, the IC50 (HepG-2) was 1360 nM and the IC50 (A549) was 760 nM. For the same molecule, the IC50 (MCF-7) was 1820 nM.
`CN(C)c1ccc(/C=N/c2c(N)n(C)c(=O)[nH]c2=O)cc1` [compound 4, (E)-6-amino-5-((4-(dimethylamino)benzylidene)amino)-1-methylpyrimidine-2,4(1H,3H)-dione] showed an IC50 (CDK1) of 2.18 ± 0.06 µM, an IC50 (HepG-2) of 1070 ± 30 nM and an IC50 [1] of 1.93 ± 0.119 µM.
`Cn1c(N)c(/N=C/c2ccc(O)cc2)c(=O)[nH]c1=O` [compound 5, (E)-6-amino-5-((4-hydroxybenzylidene)amino)-1-methylpyrimidine-2,4(1H,3H)-dione] gave an IC50 (HepG-2) of 4070 ± 80 nM.
For `CCn1c(N)c(/N=C/c2ccc(O)cc2)c(=O)[nH]c1=O` [compound 6, (E)-6-amino-1-ethyl-5-((4-hydroxybenzylidene)amino)pyrimidine-2,4(1H,3H)-dione], the IC50 (HepG-2) was 1970 ± 50 nM.
For `CCn1c(N)c(/N=C/c2ccc([N+](=O)[O-])cc2)c(=O)[nH]c1=O` [compound 7, (E)-6-amino-1-ethyl-5-((4-nitrobenzylidene)amino)pyrimidine-2,4(1H,3H)-dione], the IC50 (HepG-2) was 3380 ± 110 nM.
In the case of `CCn1c(N)c(/N=C/c2ccccc2[N+](=O)[O-])c(=O)[nH]c1=O` [compound 8, (E)-6-amino-1-ethyl-5-((2-nitrobenzylidene)amino)pyrimidine-2,4(1H,3H)-dione], the IC50 (HepG-2) is reported as 2100 ± 90 nM.
In the case of `CCn1c(N)c(/N=C/c2ccc(Br)cc2)c(=O)[nH]c1=O` [compound 9, (E)-6-amino-5-((4-bromobenzylidene)amino)-1-ethylpyrimidine-2,4(1H,3H)-dione], the IC50 (HepG-2) is reported as 3470 ± 90 nM.
